The structures appear in SMILES notation.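 Assay format: 96-well plates, 48-hour exposure. Here, GI50 denotes the concentration required for 50% inhibition of growth. At the TGI there is no net growth.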

Among the test systems are SK-MEL-5 melanoma; HOP-62 NSCLC; EKVX NSCLC; SNB-19 CNS; UACC-62 melanoma; OVCAR-4 ovarian; RXF 393 renal; MCF7 breast; MDA-MB-231 breast; BT-549 breast.
What all share (experiment): NCI tumour cell line growth inhibition, 48 h

As for `C=CCC12CC(=O)CCC1c1ccc(OC)cc1C2=O` (stereo not given), the TGI in the assay with SK-MEL-5 melanoma, in the assay on HOP-62 NSCLC, with EKVX NSCLC, in the assay with SNB-19 CNS, with UACC-62 melanoma and with OVCAR-4 ovarian was above 100 µM throughout. In the assay on RXF 393 renal, this molecule displayed a TGI above 100 µM.

With `CC(=O)OCC1OC(n2c(=O)[nH]c(=O)c3n[nH]nc32)C(OC(C)=O)C(OC(C)=O)C1OC(C)=O` (stereo not given), the TGI in the assay on SK-MEL-5 melanoma, with HOP-62 NSCLC, in the assay on EKVX NSCLC, with SNB-19 CNS, with UACC-62 melanoma and in the assay on OVCAR-4 ovarian was above 100 µM throughout. The TGI with RXF 393 renal was above 100 µM.

Regarding `Brc1cc(C2OCCCO2)ccc1OCc1ccccc1`, the TGI in the assay on SK-MEL-5 melanoma is 71.4 µM; with HOP-62 NSCLC, above 100 µM; in the assay on EKVX NSCLC, above 100 µM; with SNB-19 CNS, above 100 µM; in the assay on UACC-62 melanoma, above 100 µM; in the assay on OVCAR-4 ovarian, above 100 µM. This molecule came in with a TGI with RXF 393 renal above 100 µM.

As for `O=c1cc[nH]cc1-c1c[nH]ccc1=O`, the TGI in the assay with SK-MEL-5 melanoma, with EKVX NSCLC, with UACC-62 melanoma and in the assay on RXF 393 renal was above 100 µM in each case.

Turning to `O=C1CC(c2cccc(Cl)c2)Oc2ccccc21` (stereo not given), the TGI in the assay with MCF7 breast is 39.4 µM; in the assay with SK-MEL-5 melanoma, 37.6 µM; with HOP-62 NSCLC, 32.6 µM; with EKVX NSCLC, 43.7 µM; in the assay with MDA-MB-231 breast, above 100 µM; in the assay on SNB-19 CNS, 30.8 µM. Besides, the TGI in the assay on UACC-62 melanoma was determined as 29.8 µM; with OVCAR-4 ovarian, 94.1 µM.

Regarding `CCOC(=O)c1sc2c(C(=O)OCC)n3cc(C)cc(C)c3c2c1O`, the TGI is above 100 µM with SK-MEL-5 melanoma; 90 µM in the assay on EKVX NSCLC; above 100 µM in the assay with SNB-19 CNS; above 100 µM in the assay with UACC-62 melanoma; above 100 µM in the assay on OVCAR-4 ovarian; above 100 µM with RXF 393 renal.

For `CCOC(=O)c1c(-c2ccccc2)[n+](=O)c2cc(F)c(F)cc2n1[O-]`, the GI50 with MCF7 breast is 2.76 µM; in the assay on SK-MEL-5 melanoma, 1.53 µM; in the assay with HOP-62 NSCLC, 1.42 µM; in the assay with EKVX NSCLC, 1.73 µM; with SNB-19 CNS, 1.95 µM; with BT-549 breast it was 1.6 µM. In addition, the results for the GI50 in the assay with OVCAR-4 ovarian and in the assay with RXF 393 renal were 0.624 µM and 1.38 µM, respectively. Further, the TGI in the assay with MCF7 breast turned out to be 10.5 µM; in the assay on SK-MEL-5 melanoma it was 3.52 µM; in the assay with HOP-62 NSCLC it was 3.24 µM; with EKVX NSCLC it was 3.47 µM; in the assay with SNB-19 CNS, 3.45 µM; in the assay with BT-549 breast it was 3.26 µM. Further, the TGI is 2.16 µM in the assay on OVCAR-4 ovarian and 4.1 µM in the assay on RXF 393 renal.

`COC(=O)C(=O)C(C(=O)C(=O)Nc1ccccc1[N+](=O)[O-])c1nc2ccc([N+](=O)[O-])cc2[nH]c1=O` (stereo not given): the TGI in the assay on SK-MEL-5 melanoma, in the assay on EKVX NSCLC, in the assay on SNB-19 CNS, in the assay with UACC-62 melanoma, with OVCAR-4 ovarian and in the assay on RXF 393 renal was above 100 µM each time.

Consider `CCCC(O)c1cn(-c2cccc(S(=O)(=O)O)c2)nn1` (stereo not given), for which the TGI in the assay on SK-MEL-5 melanoma, in the assay on HOP-62 NSCLC, in the assay with EKVX NSCLC, in the assay on SNB-19 CNS, in the assay on UACC-62 melanoma and in the assay with OVCAR-4 ovarian was above 100 µM throughout. For the same molecule, the TGI with RXF 393 renal is above 100 µM.

For the molecule `COc1ccc(-c2cc3ccccc3[nH]c2=O)cc1OC`, the TGI in the assay with HOP-62 NSCLC, with EKVX NSCLC, with SNB-19 CNS, in the assay with UACC-62 melanoma, with OVCAR-4 ovarian and in the assay on RXF 393 renal was above 100 µM in each case.

For `CS(=O)(=O)c1ccc(COP(N)(=O)N(CCCl)CCCl)cc1` (stereo not given), the TGI with SK-MEL-5 melanoma, in the assay on HOP-62 NSCLC, in the assay with SNB-19 CNS, in the assay with UACC-62 melanoma, with OVCAR-4 ovarian and in the assay on RXF 393 renal was above 100 µM in each case.

Regarding `Cc1cc(=O)[nH]c(NNC(C#N)c2ccccc2O)n1` (stereo not given), the TGI in the assay on SK-MEL-5 melanoma was 75.9 µM; in the assay on HOP-62 NSCLC, 99.8 µM; in the assay with UACC-62 melanoma, 70.3 µM; in the assay with OVCAR-4 ovarian, above 100 µM; in the assay with RXF 393 renal it was above 100 µM.

In the case of `CC(C)N(C(=O)C12C3C4C5(C(=O)O)C(C1C35I)C42C(=O)O)C(C)C` (stereo not given), the TGI in the assay on SK-MEL-5 melanoma, in the assay on HOP-62 NSCLC, in the assay on EKVX NSCLC, with SNB-19 CNS, in the assay with UACC-62 melanoma and in the assay on OVCAR-4 ovarian was above 100 µM in each case.

In the case of `COc1ccc(NC(=O)CC(=O)N/N=C(\C)c2cc3ccccc3oc2=O)cc1`, the TGI in the assay on SK-MEL-5 melanoma, in the assay with HOP-62 NSCLC, with EKVX NSCLC, with SNB-19 CNS, in the assay on UACC-62 melanoma and with RXF 393 renal was above 100 µM each time.

Regarding `CN1CCN=C1c1nnn(-c2ccc([N+](=O)[O-])cc2)c1-c1ccccc1`, the TGI in the assay with SK-MEL-5 melanoma, with HOP-62 NSCLC, in the assay with EKVX NSCLC, with SNB-19 CNS, with UACC-62 melanoma and with OVCAR-4 ovarian was above 100 µM each time. In the assay on RXF 393 renal, the TGI is above 100 µM.

For `C=CC1C(CC2OC(CO)C(O)C(O)C2O)OC=C2C(=O)OCCC21O` (stereo not given), the GI50 was 21.6 µM in the assay with MCF7 breast; 15.7 µM with SK-MEL-5 melanoma; 13.4 µM with HOP-62 NSCLC; 39.8 µM in the assay with EKVX NSCLC; 40.9 µM in the assay on MDA-MB-231 breast; 13.8 µM in the assay with SNB-19 CNS. Further, the GI50 in the assay with UACC-62 melanoma was 21.2 µM; in the assay with OVCAR-4 ovarian, 5.82 µM. Besides, the TGI in the assay with MCF7 breast was above 100 µM; in the assay with SK-MEL-5 melanoma it was 37.5 µM; in the assay with HOP-62 NSCLC it was 35.5 µM; in the assay with EKVX NSCLC, above 100 µM; in the assay with MDA-MB-231 breast, 99.6 µM; in the assay with SNB-19 CNS, 37.1 µM. The TGI in the assay on UACC-62 melanoma amounted to 53.3 µM; in the assay with OVCAR-4 ovarian it was 30.2 µM.

The values are drawn from PubChem BioAssay (NCI).
